Laboratory results from patent US10654835B2, “Compounds and methods for inhibiting JAK” (Dizal (Jiangsu) Pharmaceutical Co., Ltd., priority 2015, dated 2020).
“Also recorded” adds a separate entry of the source.

Tests used:
[1] = system: NCI-H1975 tumor xenografts; assay: H1975 xenograft model, antitumor activity (Example 69); format: in vivo, mice
Description: (§1) Tumor volume was measured twice a week.
Materials and Methods: NCI-H1975 cells (a human NSCLC cell line with L858R and T790M mutations in the EGFR gene) tumor cells were implanted subcutaneously in female NCr nude mice (Taconic Laboratories), 3×10^6 cells/mouse.

[2] = LG1049 xenograft PDX model, body weight (Example 72); format: in vivo, mice
Description: Materials and Methods: LG1049 tumor fragments were implanted subcutaneously in female NSG mice (JAX Stock No. 005557). Once tumor volumes reached ˜125-275 mm^3, mice were randomized into 5 groups (10 mice/group, average tumor volume 189 mm^3, range 138-253 mm^3).

PC-9 tumor xenografts = assay: PC-9 xenograft model, antitumor activity (Example 70); format: in vivo, mice
Description: as §1

[3] = system: NCI-H1650 tumor xenografts; assay: H1650 xenograft model, antitumor activity (Example 71); format: in vivo, mice
Description: as §1
(§2) Twenty-three days after cell implantation, the mice were randomized into 6 groups (9 mice/group, average tumor volume 257 mm^3, range 205-303 mm^3). […] Drug levels in plasma were measured by LC/MS, using a Linear Ion Trap Quadrupole LC/MS/MS Mass Spectrometer (QTRAP 5500 model 1024945-BB, AB Sciex Instruments), with separation on a Waters Xbridge C18 column.

pSTAT3 (Y705) [4] = assay: pSTAT3 knockdown in LG1049 tumors (Example 72); format: in vivo, mice; settings: Example 32 25 mg/kg BID, 5 days of treatment, 4H after the final dose
Description: as §1

pSTAT3 (Y705) [5] = assay: pSTAT3 knockdown in PC-9 tumors (Example 70); format: in vivo, mice; settings: gefitinib + Example 32 12.5 and 50 mg/kg BID; 2, 8 and 24 hours after the AM dose, last day
Description: as §1

pSTAT3 (Y705) [6] = assay: pSTAT3 knockdown in NCI-H1975 tumors (Example 69); format: in vivo, mice; settings: Example 32 12.5, 25, 50 mg/kg BID, after one day of treatment
Description: as §1
(§3) Materials and Methods: NCI-H1975 cells (a human NSCLC cell line with L858R and T790M mutations in the EGFR gene) tumor cells were implanted subcutaneously in female NCr nude mice (Taconic Laboratories), 3×10^6 cells/mouse. […] Drug levels in plasma were measured by LC/MS, using a Linear Ion Trap Quadrupole LC/MS/MS Mass Spectrometer (QTRAP 5500 model 1024945-BB, AB Sciex Instruments), with separation on a Waters Xbridge C18 column.

[7] = Drug levels in plasma, H1975 xenograft mice (Example 69); format: in vivo; settings: increasing dose of Example 32, one day of treatment
Description: as §3

pSTAT3 = pSTAT3 knockdown in NCI-H1650 tumors (Example 71); format: in vivo, mice; settings: Example 32 as single agent and in combination with gefitinib, after one day of treatment
Description: as §1, §2

[8] = system: LG1049 non-small cell lung cancer PDX tumor xenografts; assay: LG1049 xenograft PDX model, antitumor activity (Example 72); format: in vivo, mice; settings: for tumor regrowth when treatment was stopped after 28 days: osimertinib single agent or osimertinib + Example 32
Description: Summary: LG1049 non-small cell lung cancer PDX tumor xenografts were grown subcutaneously in female NSG mice. […] Tumor volume was measured twice a week.

[9] = system: NCI-H1975 tumor xenografts; assay: H1975 xenograft model, intermittent Example 32 dosing schedules, antitumor activity (Example 73); format: in vivo, mice
Description: as §1
Materials and Methods: NCI-H1975 cells (a human NSCLC cell line with L858R and T790M mutations in the EGFR gene), were implanted subcutaneously in female NCr nude mice (Taconic Laboratories), 3×10^6 cells/mouse.

pEGFR = pEGFR knockdown in LG1049 tumors (Example 72); format: in vivo, mice; settings: osimertinib 25 mg/kg QD, 5 days of treatment, 4H after the final dose

COc1nn(C)cc1Nc1nccc(-c2c[nH]c3c(NC(=O)[C@@H](C)N4CCN(C)CC4)cccc23)n1 [Example 32, (2R)-N-(3-{2-[(3-methoxy-1-methyl-1H-pyrazol-4-yl)amino]pyrimidin-4-yl}-1H-indol-7-yl)-2-(4-methylpiperazin-1-yl)propanamide]
antitumor activity, single agent, relative to vehicle ([1]; Example 32 12.5, 25 or 50 mg/kg BID oral, 18 days): no significant antitumor activity; also recorded: only weak antitumor activity
dose dependence of the enhancement of antitumor activity ([1]; osimertinib 2.5 mg/kg QD + Example 32 12.5 mg/kg up to 50 mg/kg): increased with increasing dose of Example 32
antitumor activity of combination with osimertinib compared to osimertinib alone ([1]; osimertinib 2.5 mg/kg QD + Example 32 12.5, 25 or 50 mg/kg BID oral, 18 days): enhanced the antitumor activity of osimertinib
weight loss, single agent ([2]; mouse, in vivo): significant weight loss
antitumor activity of combination with gefitinib compared to gefitinib (PC-9 tumor xenografts; gefitinib 6.25 mg/kg QD + Example 32, oral, 21 days): enhanced the antitumor activity of gefitinib
activity of combination compared to single agent gefitinib (PC-9 tumor xenografts; gefitinib + 12.5 mg/kg Example 32 daily, and + 50 mg/kg Example 32 2 days on/5 days off): greater activity than single agent gefitinib, but did not quite achieve statistical significance
dose dependence of the enhancement of antitumor activity (PC-9 tumor xenografts; gefitinib + Example 32 from 12.5 mg/kg to 50 mg/kg): increased with increasing dose of Example 32
antitumor activity, single agent ([3]; Example 32 25 or 50 mg/kg BID oral, 21 days): only modest antitumor activity
antitumor activity of combination with gefitinib compared to single agent gefitinib ([3]; gefitinib 6.25 mg/kg QD + Example 32 25 or 50 mg/kg BID, 21 days): enhanced the antitumor activity of gefitinib
dose dependence of the enhancement of antitumor activity ([3]; gefitinib + Example 32 from 25 mg/kg to 50 mg/kg): increased with increasing dose of Example 32
knockdown of pSTAT3 in tumors (pSTAT3 (Y705) [4]): robust knockdown
pSTAT3 knockdown in tumors (pSTAT3 (Y705) [5]): dose dependent increase in the duration of pSTAT3 knockdown
pSTAT3 knockdown in tumors (pSTAT3 (Y705) [6]): dose dependent increase in pSTAT3 knockdown
level of Example 32 in plasma [7]: increasing level of Example 32 in plasma
pSTAT3 knockdown in tumors (pSTAT3): Knockdown of pSTAT3 was observed
tumor regrowth when Example 32 treatment was continued after 28 days of combination ([8]; Example 32 25 mg/kg BID alone 3 days on/4 days off/wk after the combination): tumors also regrew, but more slowly
antitumor activity, single agent Example 32, relative to vehicle ([8]; Example 32 25 mg/kg BID oral, 18 days): no significant antitumor activity; also recorded: no significant activity relative to vehicle control treatment
tumor regression, combination with osimertinib compared to osimertinib alone ([8]; osimertinib 25 mg/kg QD + Example 32 25 mg/kg BID (7 days, then 3 days on/4 days off/wk), 28 days): enhanced the tumor regression induced by osimertinib
tumor regrowth when treatment was stopped after 28 days [8]: tumors rapidly regrew
antitumor activity, single agent, relative to vehicle ([9]; Example 32 50 mg/kg BID oral, 19 days): no significant activity relative to vehicle control treatment
dose dependence of the enhancement of antitumor activity ([9]; Example 32 50 mg/kg BID vs. 25 mg/kg BID with osimertinib): greater at the higher dose of Example 32
statistical significance of the difference, combination vs. osimertinib alone ([9]; after 26 days of treatment): statistically significant after 26 days of treatment at all schedules of Example 32, with the exception of the groups in which Example 32 was dosed only for the first 7 days
enhancement of osimertinib activity by schedule intensity of Example 32 (rank order) ([9]; osimertinib 2.5 mg/kg QD + Example 32): daily>4 on/3 off>7 on/7 off>2 on/5 off>just first 7 days
antitumor activity of combination with osimertinib compared to osimertinib alone ([9]; osimertinib 2.5 mg/kg QD + Example 32, continuous and intermittent schedules): enhanced the antitumor activity of osimertinib

C=CC(=O)Nc1cc(Nc2nccc(-c3cn(C)c4ccccc34)n2)c(OC)cc1N(C)CCN(C)C [osimertinib, reference compound]
weight loss, single agent ([2]; LG1049 tumor bearing NSG mice, weight loss ascribed to tumor growth): lack of significant weight loss
knockdown of pEGFR in tumors (pEGFR): robust knockdown
antitumor activity, single agent osimertinib ([8]; osimertinib 25 mg/kg QD oral, 28 days): tumor regression
tumor regrowth when treatment was stopped after 28 days [8]: tumors rapidly regrew
